Test results taken from patent US7183276B2, “Azole compounds” (Takeda Pharmaceutical Company Limited, priority 2002, dated 2007).

Row | Structure (SMILES) | melting point [°C]
1 | CCOP(=O)(Cc1ccc(NC(=O)CCc2sc(NC(=O)CCc3ccccc3)nc2-c2ccc(Cl)cc2)cc1)OCC | 208 to 209
2 | N#CCc1cccc(NC(=O)CCc2oc(-n3cnc4ccccc43)nc2-c2ccc(Cl)cc2)c1 [Example 110, 3-[2-(1H-benzimidazol-1-yl)-4-(4-chlorophenyl)-5-oxazolyl]-N-[3-(cyanomethyl)phenyl]propionamide] | 188 to 189
3 | Cc1nccn1-c1nc(-c2ccc(Cl)cc2)c(CCC(=O)Nc2ccc(CC#N)cc2)o1 [Example 141, 3-[4-(4-chlorophenyl)-2-(2-methyl-1-imidazolyl)-5-oxazolyl]-N-[4-(cyanomethyl)phenyl]propionamide] | 187 to 188
4 | COc1ccccc1CNC(=O)CCc1oc(-n2cnc3ccccc32)nc1-c1ccc(Cl)cc1 [Example 133, 3-[2-(1H-benzimidazol-1-yl)-4-(4-chlorophenyl)-5-oxazolyl]-N-(2-methoxybenzyl)propionamide] | 210 to 211
5 | CCCc1nc(-c2ccc(Cl)cc2)c(CCC(=O)N2CCN(CC3CCN(C)CC3)CC2)o1.Cl.Cl | 218
6 | Cc1ccc(Cl)cc1CNC(=O)CCc1oc(-n2cnc3ccccc32)nc1-c1ccc(Cl)cc1 [Example 176, 3-[2-(1H-benzimidazol-1-yl)-4-(4-chlorophenyl)-5-oxazolyl]-N-(5-chloro-2-methylbenzyl)propionamide] | 217 to 219
7 | CCOP(=O)(Cc1ccc(NC(=O)CCc2oc(C3CCCCC3)nc2-c2ccc(Cl)cc2)cc1)OCC | 133 to 134
8 | NC(=O)CCc1oc(Cc2ccccc2)nc1-c1ccc(Cl)cc1 [Example 18, 3-[2-benzyl-4-(4-chlorophenyl)-5-oxazolyl]propionamide] | 169 to 170
9 | CCOP(=O)(Cc1ccc(NC(=O)CCc2sc(NS(=O)(=O)c3ccccc3)nc2-c2ccc(Cl)cc2)cc1)OCC | 213 to 214
10 | CN(C)c1ccc(CNC(=O)CCc2oc(-n3cnc4ccccc43)nc2-c2ccc(Cl)cc2)cc1 [Example 135, 3-[2-(1H-benzimidazol-1-yl)-4-(4-chlorophenyl)-5-oxazolyl)-N-[4-(dimethylamino)benzyl]propionamide] | 184 to 185

Now from value to compound:

Row | melting point [°C] | Structure (SMILES)
11 | 159 to 160 | O=C(CCc1oc(-n2cnc3ccccc32)nc1-c1ccc(Cl)cc1)Nc1ccccc1CO [Example 109, 3-[2-(1H-benzimidazol-1-yl)-4-(4-chlorophenyl)-5-oxazolyl]-N-[2-(hydroxymethyl)phenyl]propionamide]
12 | 104 to 105 | O=C(CCc1oc(-n2cnc3ccccc32)nc1-c1ccc(Cl)cc1)N1CCCC(O)C1 (stereo not drawn) [Example 300, 1-{3-[2-(1H-benzoimidazol-1-yl)-4-(4-chlorophenyl)-5-oxazolyl]propanoyl}-3-piperidinol]
13 | 222 to 223 | O=C(CCc1oc(-n2cnc3ccccc32)nc1-c1ccc(Cl)cc1)NCc1ccccc1Cl [Example 134, 3-[2-(1H-benzimidazol-1-yl)-4-(4-chlorophenyl)-5-oxazolyl]-N-(2-chlorobenzyl)propionamide]
14 | 156 to 157 | CCOP(=O)(Cc1ccc(NC(=O)CCc2oc(NCc3ccccc3)nc2-c2ccc(Cl)cc2)cc1)OCC
15 | 190 to 191 | O=C(CCc1oc(-n2cnc3ccccc32)nc1-c1ccc(Cl)cc1)NCc1ccc(F)cc1F [Example 160, 3-[2-(1H-benzimidazol-1-yl)-4-(4-chlorophenyl)-5-oxazolyl]-N-(2,4-difluorobenzyl)propionamide]
16 | 118 to 119 | CCOP(=O)(Cc1ccc(NC(=O)CCCc2oc(-n3cnc4ccccc43)nc2-c2ccc(Cl)cc2)c(C)c1)OCC
17 | 196 to 198 | O=C(CCCc1oc(-n2cnc3ccccc32)nc1-c1ccc(Cl)cc1)NCc1cc(Br)ccc1F [Example 195, 4-[2-(1H-benzimidazol-1-yl)-4-(4-chlorophenyl)-5-oxazolyl]-N-(5-bromo-2-fluorobenzyl)butanamide]
18 | 173 to 174 | CCOP(=O)(Cc1ccc(NC(=O)Cc2oc(-c3ccccc3)nc2-c2ccc(Cl)cc2)cc1)OCC
